Patent publication US10968218B2, “Tetrahydropyridopyrimidines for the treatment and prophylaxis of hepatitis B virus infection” (Hoffmann-La Roche Inc., priority 2016, dated 2021)

Tests used:
HBV DNA = HBV DNA assay (real-time qPCR/TaqMan of extracellular HBV DNA, HepG2.2.15 cells); type: cell-based; settings: Hepatitis B virus, 144 h; Anti HBV DNA production activity in HepG2.2.15 cells, supernatant, six days after treatment
Procedure: (§1) HepG2.2.15 cells (Acs et al. Proc Natl Acad Sci USA, 84, (1987), 4641-4), a constitutively HBV-expressing cell line were cultured in DMEM+Glutamax-I medium (Invitrogen, Carlsbad, Calif., USA), supplemented with 10% fetal bovine serum (Invitrogen) and G418 (Invitrogen) at a final concentration of 200 mg/L and maintained in 5% CO2 at 37° C.
The assay employs real-time qPCR (TaqMan) to directly measure extracellular HBV DNA copy number in the cell supernatant. HepG2.2.15 cells were plated in 96-well microtiter plates before treatment with complete medium (DMEM, Glutamax, 10% FBS, 1% Penicillin/Streptomycin, 250 μg/mL Genetycin, final DMSO concentration is 1%). Only the interior wells were utilized to reduce “edge effects” observed during cell culture, the exterior wells were filled with complete medium to help minimize sample evaporation. The HepG2.2.15 cells were treated 1 h later with various concentrations of a test compound in duplicate (top concentration used at 5 μM, 2 μM or 0.5 μM according to the HBsAg IC50 observed, with 1/3 successive dilutions (total of 10 dilutions). Six days following the initial administration of the test compound, the cell culture supernatant was collected; DNA extraction was performed by automated system (Magnapure) and then used in a real-time qPCR/TaqMan assay to determine HBV DNA copy numbers. Antiviral activity was calculated from the reduction in HBV DNA levels (IC50). The compounds of the present invention were tested for their capacity to inhibit HBV DNA as described herein.

HBsAg = HBsAg assay (CLIA of secreted HBsAg in HepG2.2.15 culture supernatant); type: cell-based, HBV; settings: Hepatitis B virus
Procedure: as §1
HepG2.2.15 cells were seeded in duplicate into white, 96-well plates at 1.5×10^4 cells/well. The cells were treated with a three-fold serial dilution series of the compounds in DMSO. The final DMSO concentration in all wells was 1% and DMSO was used as no drug control.
The HBsAg chemiluminescence immunoassay (CLIA) kit (Autobio Diagnostics Co., Zhengzhou, China, Catalog number: CL0310-2) was used to measure the levels of secreted HBV antigens semi-quantitatively. For the detection 50 μL/well culture supernatant was used and HBsAg was quantified using HBsAg chemiluminescence immunoassay (CLIA) kit (Autobio Diagnostics Co., Zhengzhou, China, Catalog number: CL0310-2), 50 μL of the supernatant was transferred to the CLIA assay plate and 50 μL of enzyme conjugate reagent was added into each well. The plates were sealed and gently agitated for 1 hour at room temperature. The supernatant-enzyme-mixture was discarded and wells were washed 6 times with 300 μL of PBS. The residual liquid was removed by plating the CLIA plate right side down on absorbent tissue paper. 25 μL of substrates A and B were added to each well. Luminance was measured using a luminometer (Mithras LB 940 Multimode Microplate Reader) after 10 minutes incubation. Dose-response curves were generated and the IC50 value was extrapolated by using the E-WorkBook Suite (ID Business Solutions Ltd., Guildford, UK). The IC50 was defined as the compound concentration at which HBsAg secretion was reduced by 50% compared to the no drug control.
The compounds according to formula I were tested for their capacity to inhibit HBsAg as described herein.

Row | Compound | IC50 (HBV DNA) [nM] | IC50 (HBsAg) [nM]
1 | COc1cc(F)nc(N2CCc3nc(-c4ncn[nH]4)ncc3C2C)c1 (stereo not drawn) [Example 43, 6-(6-Fluoro-4-methoxy-2-pyridyl)-5-methyl-2-(1H-1,2,4-triazol-5-yl)-7,8-dihydro-5H-pyrido[4,3-d]pyrimidine] | 1.7 | 8
2 | COc1cc(F)nc(N2CCc3nc(-c4ncc[nH]4)ncc3C2C)c1 (stereo not drawn) [Example 26, 6-(6-Fluoro-4-methoxy-2-pyridyl)-2-(1H-imidazol-2-yl)-5-methyl-7,8-dihydro-5H-pyrido[4,3-d]pyrimidine] | 5.7 | 31
3 | COc1cc(F)nc(N2CCc3nc(-c4cscn4)ncc3C2C)c1 (stereo not drawn) [Example 5, 4-[6-(6-Fluoro-4-methoxy-2-pyridyl)-5-methyl-7,8-dihydro-5H-pyrido[4,3-d]pyrimidin-2-yl]thiazole] | 8.7 | 23
4 | CC1c2cnc(-c3cscn3)nc2CCN1c1cc(F)nc(OCC(F)F)c1 (stereo not drawn) [Example 34, 4-[6-[2-(2,2-difluoroethoxy)-6-fluoro-4-pyridyl]-5-methyl-7,8-dihydro-5H-pyrido[4,3-d]pyrimidin-2-yl]thiazole] | – | 140
5 | COc1cc(F)nc(N2CCc3nc(-c4cn(C)cn4)ncc3C2C)c1 (stereo not drawn) [Example 8, 6-(6-Fluoro-4-methoxy-2-pyridyl)-5-methyl-2-(1-methylimidazol-4-yl)-7,8-dihydro-5H-pyrido[4,3-d]pyrimidine] | – | 29
6 | CC1c2cnc(-c3cscn3)nc2CCN1c1cc(F)nc(N2CCOCC2)c1 (stereo not drawn) [Example 12, 4-[6-fluoro-4-(5-methyl-2-thiazol-4-yl-7,8-dihydro-5H-pyrido[4,3-d]pyrimidin-6-yl)-2-pyridyl]morpholine] | – | 36
7 | CC1c2cnc(-c3cscn3)nc2CCN1c1cc(F)nc(OCC2CC2)c1 (stereo not drawn) [Example 31, 4-[6-[2-(cyclopropylmethoxy)-6-fluoro-4-pyridyl]-5-methyl-7,8-dihydro-5H-pyrido[4,3-d]pyrimidin-2-yl]thiazole] | – | 117
8 | CC1c2cnc(-c3cscn3)nc2CCN1c1cc(F)nc(N2CCN(S(C)(=O)=O)CC2)c1 (stereo not drawn) [Example 20, 4-[6-[2-fluoro-6-(4-methylsulfonylpiperazin-1-yl)-4-pyridyl]-5-methyl-7,8-dihydro-5H-pyrido[4,3-d]pyrimidin-2-yl]thiazole] | 20.3 | 13
9 | CC1c2cnc(-c3cscn3)nc2CCN1c1cc(F)nc(N2CCCC2)c1 (stereo not drawn) [Example 17, 4-[6-(2-fluoro-6-pyrrolidin-1-yl-4-pyridyl)-5-methyl-7,8-dihydro-5H-pyrido[4,3-d]pyrimidin-2-yl]thiazole] | – | 17
10 | CC1c2cnc(-c3cscn3)nc2CCN1c1cc(F)cc(OCC(F)F)n1 (stereo not drawn) [Example 36, 4-[6-[6-(2,2-difluoroethoxy)-4-fluoro-2-pyridyl]-5-methyl-7,8-dihydro-5H-pyrido[4,3-d]pyrimidin-2-yl]thiazole] | – | 112
11 | COc1cc(F)nc(N2CCc3nc(-c4nccn4C)ncc3C2C)c1 (stereo not drawn) [Example 7, 6-(6-Fluoro-4-methoxy-2-pyridyl)-5-methyl-2-(1-methylimidazol-2-yl)-7,8-dihydro-5H-pyrido[4,3-d]pyrimidine] | – | 16700
